Source: US9499538B2, “Estrogen receptor modulators and uses thereof” (Seragon Pharmaceuticals, Inc., priority 2012, dated 2016)

Legend:
[1] = test system: MCF-7 cells; assay: Breast Cancer Cell Viability Assays (MCF-7, CellTiter-Glo); type: cell-based; details: 5 days' compound exposure; for IC50: Homo sapiens, MCF7, 120 h
Protocol: MCF-7 cells were adjusted to a concentration of 20,000 cells per mL in RPMI containing 10% FBS and 20 mM HEPES. 16 microliters of the cell suspension (320 cells) was added to each well of a 384 well plate, and the cells were incubated overnight to allow the cells to adhere. The following day an eleven point, serial semilog dilution of each compound was added to the cells in 16 μL at a final concentration ranging from 0.3-0.000003 μM. After 5 days' compound exposure, 16 μL of CellTiter-GLo (Promega, Madison Wis.) was added to the cells, and the relative luminescence units (RLUs) of each well were determined. CellTiter-Glo added to 32 μL of medium without cells was used to obtain a background value. The Percent viability of each sample was determined as follows: (RLU sample−RLU background/RLU untreated cells−RLU background)×100=% viability. […]

[2] = biological target: T1, ER-α in MCF-7 cells (Homo sapiens, UniProt P03372); assay: Breast Cancer Cell ER-α In Cell Western Assay (SP1); type: cell-based; details: 4 or 24 hr post compound addition; for Emax: MCF7, SP1 antibody, read-out: ER-α In Cell Western Assay (SP1) Max Response; for DC50: SP1 antibody, read-out: ER-α In Cell Western Assay (SP1) IC50
T1 construct: endogenous in cells; host or cells: MCF-7
T1 sequence (P03372 1-595): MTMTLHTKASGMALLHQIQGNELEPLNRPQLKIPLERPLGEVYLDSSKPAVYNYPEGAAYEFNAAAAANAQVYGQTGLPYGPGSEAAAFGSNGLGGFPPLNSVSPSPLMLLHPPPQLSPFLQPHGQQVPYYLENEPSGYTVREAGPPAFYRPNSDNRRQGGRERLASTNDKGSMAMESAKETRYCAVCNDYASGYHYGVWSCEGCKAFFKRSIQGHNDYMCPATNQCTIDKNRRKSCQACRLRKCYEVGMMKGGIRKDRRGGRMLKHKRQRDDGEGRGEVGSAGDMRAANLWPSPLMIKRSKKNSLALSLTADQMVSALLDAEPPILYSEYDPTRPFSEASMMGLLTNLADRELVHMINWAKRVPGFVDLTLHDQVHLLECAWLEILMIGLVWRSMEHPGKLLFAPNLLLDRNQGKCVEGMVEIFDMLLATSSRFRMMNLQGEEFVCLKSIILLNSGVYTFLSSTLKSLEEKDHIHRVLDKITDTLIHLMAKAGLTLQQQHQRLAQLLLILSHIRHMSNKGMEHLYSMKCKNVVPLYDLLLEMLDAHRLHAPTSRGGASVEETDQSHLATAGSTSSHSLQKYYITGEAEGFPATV
Protocol: MCF-7 cells were adjusted to a concentration of 200,000 cells per mL in RPMI containing 10% charcoal-stripped FBS and 20 mM HEPES. 16 microliters of the cell suspension (3200 cells) was added to each well of a poly-D-lysine 384 well plate, and the cells were incubated overnight to allow the cells to adhere. The following day an eleven point, serial semilog dilution of each compound was added to the cells in 16 μL at a final concentration ranging from 0.3-0.000003 μM. At 4 or 24 hr post compound addition, the cells were fixed (10% formalin in PBS) for 20 minutes. Cells were permeablized in PBS 0.1% Triton and blocked with LICOR blocking buffer (50 μl/well, 90′). The wells were then incubated overnight at 4° C. with SP1 rabbit monoclonal Ab (Thermo Scientific) diluted 1:1000 in LICOR blocking buffer/0.1% Tween-20. Wells which were treated with blocking buffer with Tween but no antibody were used as a background control. Wells were washed with 0.1% Tween-20/PBS and then incubated in goat anti-rabbit IRDye™ 800CW (LICOR Inc.; 1:10000) and DRAQ5 DNA dye (1:2000 for 2 mM stock) diluted in LICOR blocking buffer containing 0.1% Tween-20 and 0.01% SDS for 60 minutes. Cells were washed (50 μl/well, 5′ each) in 0.1% Tween-20/PBS. Plates were scanned on a LICOR Odyssey infrared imaging system. Integrated intensities in the 800 nm channel and 700 nm channel were measured to determine levels of ER and DNA respectively. Percent ER levels were determined as follows: (Integrated intensity 800 nm sample/integrated intensity 700 nm sample)/(Integrated intensity 800 nm untreated cells/integrated intensity 700 nm untreated cells)×100=% ER levels. […]

SMILES | IC50 [1] [nM] | Emax [2] [%] | DC50 [2] [nM] | MCF7 Viability Assay Max Response [1]
O=C(O)/C=C/c1ccc(/C(=C(\c2ccccc2)C2CCC2)c2ccc3[nH]ncc3c2Cl)cc1 [Example 2, (E)-3-(4-((E)-1-(4-Chloro-1H-indazol-5-yl)-2-cyclobutyl-2-phenylvinyl)phenyl)acrylic acid] | ≤ 100 | ≥ 40 | ≤ 100 | ++ (++ = a single % value ≧ 40%)
O=C(O)/C=C/c1ccc(/C(=C(\c2ccccc2)C2CCC2)c2ccc3c(c2)CNC3=O)cc1 [Example 4, (E)-3-(4-((E)-2-Cyclobutyl-1-(1-oxoisoindolin-5-yl)-2-phenylvinyl)phenyl)acrylic acid] | ≤ 100 | ≥ 40 | ≤ 100 | ++ (++ = a single % value ≧ 40%)
O=C(O)/C=C/c1ccc(/C(=C(\c2ccc(F)cc2Cl)C2CCC2)c2ccc3c(c2)CNC3=O)cc1 [Example 5, (E)-3-(4-((E)-2-(2-Chloro-4-fluorophenyl)-2-cyclobutyl-1-(1-oxoisoindolin-5-yl)vinyl)phenyl)acrylic acid] | ≤ 100 | ≥ 40 | ≤ 100 | ++ (++ = a single % value ≧ 40%)
CC/C(=C(/c1ccc(/C=C/C(=O)O)cc1)c1ccc2[nH]ncc2c1C#N)c1ccc(F)cc1Cl [Example 6, (E)-3-(4-((E)-2-(2-Chloro-4-fluorophenyl)-1-(4-cyano-1H-indazol-5-yl)but-1-en-1-yl)phenyl)acrylic acid] | ≤ 100 | ≥ 40 | ≤ 100 | ++ (++ = a single % value ≧ 40%)
CC/C(=C(/c1ccc(/C=C/C(=O)O)cc1)c1ccc2[nH]nc(F)c2c1F)c1ccccc1 [Example 7, (E)-3-(4-((E)-1-(3,4-Difluoro-1H-indazol-5-yl)-2-phenylbut-1-en-1-yl)phenyl)acrylic acid] | ≤ 100 | ≥ 40 | ≤ 100 | ++ (++ = a single % value ≧ 40%)
COc1c(/C(=C(/c2ccccc2)C2CCC2)c2ccc(/C=C/C(=O)O)cc2)ccc2[nH]ncc12 [Example 9, (E)-3-(4-((E)-2-Cyclobutyl-1-(4-methoxy-1H-indazol-5-yl)-2-phenylvinyl)phenyl)acrylic acid] | ≤ 100 | ≥ 40 | ≤ 100 | ++ (++ = a single % value ≧ 40%)
N#Cc1c(/C(=C(/c2ccccc2F)C2CCC2)c2ccc(/C=C/C(=O)O)cc2)ccc2[nH]ncc12 [Example 10, (E)-3-(4-((E)-1-(4-Cyano-1H-indazol-5-yl)-2-cyclobutyl-2-(2-fluorophenyl)vinyl)phenyl)acrylic acid] | ≤ 100 | ≥ 40 | ≤ 100 | ++ (++ = a single % value ≧ 40%)

Further lines, with some results ahead:

IC50 [1] [nM] | Emax [2] [%] | DC50 [2] [nM] | SMILES | MCF7 Viability Assay Max Response [1]
≤ 100 | ≥ 40 | ≤ 100 | N#Cc1c(/C(=C(/c2ccccc2)C2CCC2)c2ccc(/C=C/C(=O)O)cc2)ccc2[nH]ncc12 [Example 1, (E)-3-(4-((E)-1-(4-Cyano-1H-indazol-5-yl)-2-cyclobutyl-2-phenylvinyl)phenyl)acrylic acid] | ++ (++ = a single % value ≧ 40%)
≤ 100 | ≥ 40 | ≤ 100 | CC/C(=C(/c1ccc(/C=C/C(=O)O)cc1)c1ccc2[nH]ncc2c1C#N)c1ccccc1 [Example 3, (E)-3-(4-((E)-1-(4-Cyano-1H-indazol-5-yl)-2-phenylbut-1-en-1-yl)phenyl)acrylic acid] | ++ (++ = a single % value ≧ 40%)
≤ 100 | ≥ 40 | ≤ 100 | CC/C(=C(/c1ccc(/C=C/C(=O)O)cc1)c1ccc2[nH]ncc2c1OC)c1ccccc1 [Example 8, (E)-3-(4-((E)-1-(4-Methoxy-1H-indazol-5-yl)-2-phenylbut-1-en-1-yl)phenyl)acrylic acid] | ++ (++ = a single % value ≧ 40%)
